Reference: patent US7517874B2 (priority 2007, dated 2009)

Key:
rat CB2 receptor (rCB2) = target: T1, rat CB2 receptor (rCB2) (Rattus norvegicus, UniProt Q9QZN9); assay: cell-based; format: cell-based; conditions: for +/− RCB2: agonist or inverse agonist at rCB2
T1 sequence (Q9QZN9 1-360): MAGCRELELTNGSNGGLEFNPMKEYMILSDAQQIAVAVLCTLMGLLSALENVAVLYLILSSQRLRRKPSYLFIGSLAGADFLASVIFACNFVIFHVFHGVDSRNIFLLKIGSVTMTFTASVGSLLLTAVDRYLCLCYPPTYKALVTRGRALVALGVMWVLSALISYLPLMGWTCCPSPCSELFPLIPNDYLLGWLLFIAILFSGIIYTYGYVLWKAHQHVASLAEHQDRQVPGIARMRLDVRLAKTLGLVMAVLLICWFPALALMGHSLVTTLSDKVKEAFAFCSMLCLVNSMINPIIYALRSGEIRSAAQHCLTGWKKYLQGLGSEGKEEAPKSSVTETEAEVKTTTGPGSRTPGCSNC
Outline: (§1)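 Readout: LANCE TR-FRET cAMP, back-calculated from a concurrent standard curve and scaled between forskolin-only and forskolin + 1 μM CP55,940 wells. EC50 and intrinsic activity came from four-parameter fits.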

[1] = target: human CB1 receptor (hCB1) (Homo sapiens, UniProt P21554); assay: cell-based; format: cell-based; conditions: for +/− HCB1: agonist or inverse agonist at hCB1
Outline: as §1

human CB1 receptor (hCB1), sequence (P21554 whole entry): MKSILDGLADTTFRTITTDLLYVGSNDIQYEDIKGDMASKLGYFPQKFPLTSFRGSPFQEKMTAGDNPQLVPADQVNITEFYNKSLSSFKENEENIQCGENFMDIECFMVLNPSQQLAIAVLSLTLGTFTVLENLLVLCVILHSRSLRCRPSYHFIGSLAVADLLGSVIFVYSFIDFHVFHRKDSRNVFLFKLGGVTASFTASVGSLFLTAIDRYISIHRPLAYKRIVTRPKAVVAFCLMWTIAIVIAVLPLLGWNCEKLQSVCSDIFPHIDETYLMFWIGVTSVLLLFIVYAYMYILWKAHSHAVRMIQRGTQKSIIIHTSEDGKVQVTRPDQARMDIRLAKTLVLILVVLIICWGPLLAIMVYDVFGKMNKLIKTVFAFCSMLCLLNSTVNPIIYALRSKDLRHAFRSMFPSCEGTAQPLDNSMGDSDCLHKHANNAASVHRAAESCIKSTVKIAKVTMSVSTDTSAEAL

Row | SMILES | +/− RCB2 (rat CB2 receptor (rCB2)) | +/− HCB1 [1] | EC50 [1] | EC50 (rat CB2 receptor (rCB2))
1 | CNC(=O)[C@@H](NC(=O)c1nc(-c2ccncc2F)n2c1CN(C)CCC2)C(C)(C)C [Compound 451, (S)-N-(3,3-dimethyl-1-(methylamino)-1-oxobutan-2-yl)-3-(3-fluoropyridin-4-yl)-8-methyl-6,7,8,9-tetrahydro-5H-imidazo[1,5-a][1,4]diazepine-1-carboxamide] | + | + |  | 
2 | C=C(c1nc(C(=O)N[C@H](C(=O)NC)C(C)(C)C)c2n1CCCN(C)C2)C(F)(F)F [Compound 453, (S)-N-(3,3-dimethyl-1-(methylamino)-1-oxobutan-2-yl)-8-methyl-3-(3,3,3-trifluoroprop-1-en-2-yl)-6,7,8,9-tetrahydro-5H-imidazo[1,5-a][1,4]diazepine-1-carboxamide] | + |  | > 10 µM | 
3 | CNC(=O)[C@@H](NC(=O)c1nc(C(C)=C(C)C)n2c1CN(C)CCC2)C(C)(C)C [Compound 454, (S)-N-(3,3-dimethyl-1-(methylamino)-1-oxobutan-2-yl)-8-methyl-3-(3-methylbut-2-en-2-yl)-6,7,8,9-tetrahydro-5H-imidazo[1,5-a][1,4]diazepine-1-carboxamide] | − | + |  | 
4 | C=C(c1ccccc1)c1nc(C(=O)N[C@H](C(=O)NC)C(C)(C)C)c2n1CCCN(C)C2 [Compound 455, (S)-N-(3,3-dimethyl-1-(methylamino)-1-oxobutan-2-yl)-8-methyl-3-(1-phenylvinyl)-6,7,8,9-tetrahydro-5H-imidazo[1,5-a][1,4]diazepine-1-carboxamide] | + |  | > 10 µM | 
5 | CNC(=O)[C@@H](NC(=O)c1nc(C2=CCCC2)n2c1CN(C)CCC2)C(C)(C)C [Compound 456] | + |  | > 10 µM | 
6 | CNC(=O)[C@@H](NC(=O)c1nc(C2=CCCCCC2)n2c1CN(C)CCC2)C(C)(C)C [Compound 457, (S,E)-3-cycloheptenyl-N-(3,3-dimethyl-1-(methylamino)-1-oxobutan-2-yl)-8-methyl-6,7,8,9-tetrahydro-5H-imidazo[1,5-a][1,4]diazepine-1-carboxamide] | − |  | > 10 µM | 
7 | CNC(=O)[C@@H](NC(=O)c1nc(/C=C/Cc2ccccc2)n2c1CN(C)CCC2)C(C)(C)C [Compound 458, (S,E)-N-(3,3-dimethyl-1-(methylamino)-1-oxobutan-2-yl)-8-methyl-3-(3-phenylprop-1-enyl)-6,7,8,9-tetrahydro-5H-imidazo[1,5-a][1,4]diazepine-1-carboxamide] | − | + |  | 
8 | CNC(=O)[C@@H](NC(=O)c1nc(Cc2ccccc2)n2c1CN(C)CCC2)C(C)(C)C [Compound 459, (S)-3-benzyl-N-(3,3-dimethyl-1-(methylamino)-1-oxobutan-2-yl)-8-methyl-6,7,8,9-tetrahydro-5H-imidazo[1,5-a][1,4]diazepine-1-carboxamide] | + |  | > 10 µM | 
9 | CNC(=O)[C@@H](NC(=O)c1nc(C2=CCNCC2)n2c1CN(C)CCC2)C(C)(C)C [Compound 460, (S)-N-(3,3-dimethyl-1-(methylamino)-1-oxobutan-2-yl)-8-methyl-3-(1,2,3,6-tetrahydropyridin-4-yl)-6,7,8,9-tetrahydro-5H-imidazo[1,5-a][1,4]diazepine-1-carboxamide] | + | + |  | 
10 | CCS(=O)(=O)N1CCCn2c(-c3ccccc3)nc(C(=O)N[C@H](C(=O)NC)C(C)(C)C)c2C1 [Compound 461, (S)-N-(3,3-dimethyl-1-(methylamino)-1-oxobutan-2-yl)-8-(ethylsulfonyl)-3-phenyl-6,7,8,9-tetrahydro-5H-imidazo[1,5-a][1,4]diazepine-1-carboxamide] | − |  | > 10 µM | 
11 | CNC(=O)[C@@H](NC(=O)c1nc(-c2ccccc2)n2c1CN(C(=O)c1ccccc1)CCC2)C(C)(C)C [Compound 462, (S)-8-benzoyl-N-(3,3-dimethyl-1-(methylamino)-1-oxobutan-2-yl)-3-phenyl-6,7,8,9-tetrahydro-5H-imidazo[1,5-a][1,4]diazepine-1-carboxamide] |  |  | > 10 µM | > 10 µM
12 | CNC(=O)[C@@H](NC(=O)c1nc(-c2ccccc2)n2c1CN(C(C)=O)CCC2)C(C)(C)C [Compound 463, (S)-8-acetyl-N-(3,3-dimethyl-1-(methylamino)-1-oxobutan-2-yl)-3-phenyl-6,7,8,9-tetrahydro-5H-imidazo[1,5-a][1,4]diazepine-1-carboxamide] | + |  | > 10 µM | 
13 | CNC(=O)[C@@H](NC(=O)c1nc(-c2ccccc2)n2c1CN(S(=O)(=O)c1ccc(F)cc1)CCC2)C(C)(C)C [Compound 464, (S)-N-(3,3-dimethyl-1-(methylamino)-1-oxobutan-2-yl)-8-(4-fluorophenylsulfonyl)-3-phenyl-6,7,8,9-tetrahydro-5H-imidazo[1,5-a][1,4]diazepine-1-carboxamide] | − |  | > 10 µM | 
14 | COC(=O)[C@@H](NC(=O)c1nc(-c2ccccc2)n2c1CNCCC2)C(C)(C)C [Compound 465, (S)-methyl 3,3-dimethyl-2-(3-phenyl-6,7,8,9-tetrahydro-5H-imidazo[1,5-a][1,4]diazepine-1-carboxamido)butanoate] | + |  | > 10 µM | 
15 | COC(=O)[C@@H](NC(=O)c1nc(-c2ccc(C)cc2F)n2c1CNCCC2)C(C)(C)C [Compound 466] | − |  | > 10 µM | 
16 | COC(=O)[C@@H](NC(=O)c1nc(-c2ccccc2)n2c1CN(C)CCC2)C(C)(C)C [Compound 467, (S)-methyl 3,3-dimethyl-2-(8-methyl-3-phenyl-6,7,8,9-tetrahydro-5H-imidazo[1,5-a][1,4]diazepine-1-carboxamido)butanoate] | + |  | > 10 µM | 
17 | COC(=O)[C@@H](NC(=O)c1nc(-c2ccccc2)n2c1CN(C(C)C)CCC2)C(C)(C)C [Compound 468, (S)-methyl 2-(8-isopropyl-3-phenyl-6,7,8,9-tetrahydro-5H-imidazo[1,5-a][1,4]diazepine-1-carboxamido)-3,3-dimethylbutanoate] | − |  | > 10 µM | 
18 | COC(=O)[C@@H](NC(=O)c1nc(-c2ccc(C)cc2F)n2c1CN(C)CCC2)C(C)(C)C [Compound 469, (S)-methyl 2-(3-(2-fluoro-4-methylphenyl)-8-methyl-6,7,8,9-tetrahydro-5H-imidazo[1,5-a][1,4]diazepine-1-carboxamido)-3,3-dimethylbutanoate] |  |  | > 10 µM | > 10 µM
19 | COC(=O)[C@@H](NC(=O)c1nc(-c2ccc(C)cc2F)n2c1CN(CC1CC1)CCC2)C(C)(C)C [Compound 470, (S)-methyl 2-(8-(cyclopropylmethyl)-3-(2-fluoro-4-methylphenyl)-6,7,8,9-tetrahydro-5H-imidazo[1,5-a][1,4]diazepine-1-carboxamido)-3,3-dimethylbutanoate] | − |  | > 10 µM | 
20 | CN1CCCn2c(-c3ccccc3)nc(C(=O)N[C@H](C(=O)O)C(C)(C)C)c2C1 [Compound 471, (S)-3,3-dimethyl-2-(8-methyl-3-phenyl-6,7,8,9-tetrahydro-5H-imidazo[1,5-a][1,4]diazepine-1-carboxamido)butanoic acid] |  |  | > 10 µM | > 10 µM
21 | CC(C)NC(=O)[C@@H](NC(=O)c1nc(-c2ccccc2)n2c1CN(C)CCC2)C(C)(C)C [Compound 472, (S)-N-(1-(isopropylamino)-3,3-dimethyl-1-oxobutan-2-yl)-8-methyl-3-phenyl-6,7,8,9-tetrahydro-5H-imidazo[1,5-a][1,4]diazepine-1-carboxamide] | + |  | > 10 µM | 
22 | CCCNC(=O)[C@@H](NC(=O)c1nc(-c2ccccc2)n2c1CN(C)CCC2)C(C)(C)C [Compound 473, (S)-N-(3,3-dimethyl-1-oxo-1-(propylamino)butan-2-yl)-8-methyl-3-phenyl-6,7,8,9-tetrahydro-5H-imidazo[1,5-a][1,4]diazepine-1-carboxamide] | + |  | > 10 µM | 
23 | CC(C)CNC(=O)[C@@H](NC(=O)c1nc(-c2ccccc2)n2c1CN(C)CCC2)C(C)(C)C [Compound 474, (S)-N-(1-(isobutylamino)-3,3-dimethyl-1-oxobutan-2-yl)-8-methyl-3-phenyl-6,7,8,9-tetrahydro-5H-imidazo[1,5-a][1,4]diazepine-1-carboxamide] | + |  | > 10 µM | 
24 | COCCNC(=O)[C@@H](NC(=O)c1nc(-c2ccccc2)n2c1CN(C)CCC2)C(C)(C)C [Compound 475, (S)-N-(1-(2-methoxyethylamino)-3,3-dimethyl-1-oxobutan-2-yl)-8-methyl-3-phenyl-6,7,8,9-tetrahydro-5H-imidazo[1,5-a][1,4]diazepine-1-carboxamide] | + |  | > 10 µM | 
25 | CN1CCCn2c(-c3ccccc3)nc(C(=O)N[C@H](C(=O)NCCF)C(C)(C)C)c2C1 [Compound 476, (S)-N-(1-(2-fluoroethylamino)-3,3-dimethyl-1-oxobutan-2-yl)-8-methyl-3-phenyl-6,7,8,9-tetrahydro-5H-imidazo[1,5-a][1,4]diazepine-1-carboxamide] | + |  | > 10 µM | 
26 | CN1CCCn2c(-c3ccccc3)nc(C(=O)N[C@H](C(=O)NC3CC3)C(C)(C)C)c2C1 [Compound 477, (S)-N-(1-(cyclopropylamino)-3,3-dimethyl-1-oxobutan-2-yl)-8-methyl-3-phenyl-6,7,8,9-tetrahydro-5H-imidazo[1,5-a][1,4]diazepine-1-carboxamide] | + |  | > 10 µM | 
